The results in this text go back to ChEMBL document CHEMBL5223072, “A look around the West Indies: The spices of life are secondary metabolites” (Bioorg Med Chem, 2020).

One assay relates to SK-OV-3. The experiment in a line: Antiproliferative activity against human SK-OV-3 cells assessed as cell growth inhibition measured for 72 hrs. Type of assay: functional, cell-based. As to conditions: SK-OV-3, 72 h.
Assay [1] concerns A549. The experiment in a line: Antiproliferative activity against human A549 cells assessed as cell growth inhibition measured for 72 hrs. Type of assay: functional, cell-based. The settings on record: A549, 72 h.
In a further assay the test system is HCT-116. In words: Cytotoxicity against human HCT-116 cells assessed as reduction in cell viability. Type of assay: functional, cell-based.
The test system of the next assay is NCI-H460. In words: Cytotoxicity against human NCI-H460 cells assessed as reduction in cell viability. Type of assay: functional, cell-based.
Assay [2] can be described thus: Inhibition of Saccharomyces cerevisiae 20S proteosome.
Assay [3] concerns Plasmodium falciparum. The experiment in a line: Antimalarial activity against Plasmodium falciparum W2 assessed as reduction in parasite growth. Type of assay: functional.
For assay [4], the system named is Plasmodium falciparum. In words: Antimalarial activity against Plasmodium falciparum D6 assessed as reduction in parasite growth. Type of assay: functional.
Assay [5] has as its system P388. In words: Antiproliferative activity against mouse P388 cells assessed as cell viability by WST-8 colorimetric assay. Type of assay: functional, cell-based. (Tetrazolium dyes change colour on reduction, which living cells bring about.)
The next assay deals with MCF7. The experiment in a line: Antiproliferative activity against human MCF7 cells assessed as cell viability by WST-8 colorimetric assay. Type of assay: functional, cell-based.
Assay [6] has as its system A549. In words: Antiproliferative activity against human A549 cells assessed as cell viability by WST-8 colorimetric assay. Type of assay: functional, cell-based.
Another assay has as its system Leishmania donovani. In words: Antileishmanial activity against Leishmania donovani assessed as parasite growth inhibition. Type of assay: functional, organism-based.
The nature of assay [7]: Activation of hypoxia-induced HIF-1 in human T47D cells. Type of assay: cell-based.
The test system of assay [8] is Candida albicans. In words: Antifungal activity against Candida albicans. Type of assay: functional.
Assay [9] has as its system Staphylococcus aureus. The experiment in a line: Antibacterial activity against Staphylococcus aureus SH1000 cultured in iron depleted media assessed as reduction in bacterial cell growth. Type of assay: functional.
Assay [10] relates to Staphylococcus aureus. The experiment in a line: Antibacterial activity against Staphylococcus aureus SH1000 cultured in iron rich media assessed as reduction in bacterial cell growth. Type of assay: functional.
Assay [11] in a line: Inhibition of sodium channel (unknown origin). Also on record: species or system Homo sapiens.
The subject of assay [12] is Streptococcus. In words: Antibiofilm activity against Streptococcus assessed as inhibition of biofilm maturation. Type of assay: functional, organism-based.
For assay [13], the system named is Streptococcus. The experiment in a line: Antibacterial activity against Streptococcus. Type of assay: functional.
For assay [14], the system named is P388. In words: Antiproliferative activity against mouse P388 cells assessed as cell growth inhibition. Type of assay: functional, cell-based.
For another assay, the system named is OVCAR-3. In words: Cytotoxicity against human OVCAR-3 cells assessed as reduction in cell viability. Type of assay: functional, cell-based.
A short description of assay [15]: Cytotoxicity against human bladder carcinoma cell assessed as reduction in cell viability. Type of assay: functional, cell-based.
The subject of the next assay is MAXF401 cell line. The experiment in a line: Cytotoxicity against human NCI-MAXF401 cells assessed as reduction in cell viability. Type of assay: functional, cell-based.
The test system of assay [16] is Candida albicans. In words: Antifungal activity against Candida albicans as reduction in fungal growth. Type of assay: functional, organism-based.

In brackets after ≈: the same amount, converted by molar mass.

For orientation: IC50 means the point on the concentration scale where inhibition reaches its midpoint. Take `C=C/C=C\[C@H](C)[C@H](OC(N)=O)[C@@H](C)[C@H](O)[C@@H](C)C/C(C)=C\[C@H](C)[C@@H](O)[C@@H](C)/C=C\[C@@H](O)C[C@@H]1OC(=O)C(C)=C[C@H]1C`: the concentration for half-maximal inhibition (IC50) in the assay with SK-OV-3 was determined as 6.1 nM; in the assay with A549 [1] it was 1.8 nM. The EC50 is the concentration that produces a half-maximal response. As for `CCCCCC(=O)N[C@H](C(=O)N[C@@H](CCS(C)(=O)=O)C(=O)N[C@@H](CC(C)C)C(=O)[C@@]1(C)CO1)C(C)C`, the EC50 with HCT-116 was 43 nM; in the assay on NCI-H460 it was 6 nM. This compound also gave a half-inhibitory concentration (IC50) in assay [2] of 2.6 nM. One may read the MIC as the lowest concentration found to suppress growth. With `CC(C)=CCC[C@H](C)c1ccc(C)cc1O`, the MIC with Plasmodium falciparum [3] stood at 3.6 µg/mL (≈ 16.5 µM); with Plasmodium falciparum [4], 1.8 µg/mL (≈ 8.24 µM). As for `CCC[C@H]1C[C@@H](OC)C[C@H](C)C[C@@H]2C[C@@H](OC(=O)/C=C\CCc3coc(/C=C\CNC(=O)OC)n3)C[C@H](CC(=O)O1)O2`, the figures for the IC50 in the assay with P388 [5], in the assay on MCF7 and in the assay on A549 [6] were 0.72 nM, 33 nM and 43.9 nM, respectively. Regarding `CC(C)=CCC[C@H](C)c1ccc(C)cc1OC(=O)c1ccncc1`, the half-inhibitory concentration (IC50) with Leishmania donovani came out at 600 nM. In the case of `C=C[C@@H]1CSC(C[C@@H](C)[C@@H](C)C[C@H](C)CCN(C)C(=O)[C@H](C)CC)=N1`, the concentration for half-maximal inhibition (IC50) in [7] came to 5.6 nM. In the assay on Candida albicans [8], `CO[C@H]1[S+]([O-])/C2=C\C(=O)[C@](C)(O[C@H]3CC[C@H](N(C)C)[C@@H](C)O3)[C@H](O)CC/C(C)=C\[C@@H]3[C@@H](C)[C@](C)(Cl)[C@@H](C[C@H]3O[C@H]3CC[C@H](N(C)C)[C@@H](C)O3)OC(=O)[C@@H]3CSC(=N3)[C@]1(C)N2` (some centres not stated) showed a minimum inhibitory concentration (MIC) of 16 µg/mL (≈ 17.7 µM).

As to `CCC(=O)[C@@H](C)C[C@@H](C)C[C@@H](C)CC[C@H](O)CC(=O)[C@H](CC(C)C)[C@H](O)c1cc(O)cc(O)c1`, the minimum inhibitory concentration (MIC) with Staphylococcus aureus [9] and with Staphylococcus aureus [10] was 63 µM (≈ 30.2 µg/mL) throughout. For the compound `CO/C(=C/C(=O)N1C(=O)C=C[C@@H]1C)CCNC(=O)CC/C=C/C(C)CC/C(=C/Cl)CCCC#CBr` (some centres not stated), in [11], the half-inhibitory concentration (IC50) is 5000 nM.

Regarding `C[C@H]1/C=C/[C@H]2OC(C)(C)O[C@H]2C(=O)O[C@H](CCCCCCCC(=O)O)[C@@H](C)CCC1`, in the assay on Streptococcus [12], the IC50 was 44000 nM. Besides, in the assay with Streptococcus [13], the minimum inhibitory concentration (MIC) was found to be 250 µM (≈ 106 µg/mL). In [11], `C=CCCC/C(=C\Cl)CCC(C)/C=C/CCC(=O)NCC/C(=C\C(=O)N1C(=O)C=C[C@@H]1C)OC` (some centres not stated) gave an IC50 of 5000 nM.

With `CCC(=O)[C@@H](C)C[C@@H](C)C[C@@H](C)CC[C@H](O)C[C@H](O)[C@@H](CC(C)C)[C@H](O)c1cc(O)cc(O)c1`, the MIC in the assay on Staphylococcus aureus [9] and in the assay on Staphylococcus aureus [10] was 125 µM (≈ 60.1 µg/mL) each time. In turn, `C#CCCC/C(=C\Cl)CCC(C)/C=C/CCC(=O)NCC/C(=C\C(=O)N1C(=O)C=C[C@@H]1C)OC` (some centres not stated) registered an IC50 in assay [11] of 5000 nM. For the compound `CC(=O)[C@@H](C)C[C@@H](C)C[C@@H](C)CC[C@H](O)C[C@H](O)[C@H](CC(C)C)[C@H](O)c1cc(O)cc(O)c1`, the MIC in the assay on Staphylococcus aureus [9] and in the assay on Staphylococcus aureus [10] was 500 µM (≈ 233 µg/mL) each time. For `C[C@H]1/C=C/[C@H]2OC(C)(C)O[C@H]2C(=O)O[C@H](c2cccc(CCCCC(=O)O)c2)[C@@H](C)/C=C/C1`, the IC50 with Streptococcus [12] worked out at 63000 nM. Consider `CCC(=O)[C@@H](C)C[C@@H](C)C[C@@H](C)CC[C@H](O)C[C@H](O)[C@H](CC(C)C)[C@H](O)c1cc(O)cc(O)c1`, for which the MIC in the assay with Staphylococcus aureus [9] and in the assay on Staphylococcus aureus [10] was 125 µM (≈ 60.1 µg/mL) throughout. Regarding `CCCCCCOC(=O)C[C@H]1C[C@H](OC(=O)/C=C\CCc2coc(/C=C\CNC(=O)OC)n2)C[C@@H](/C=C/c2ccccc2)O1`, in the assay on A549 [6], the IC50 was 1.6 nM. For the compound `CCCCCC(=O)N[C@H](C(=O)N[C@@H](CC[S+](C)[O-])C(=O)N[C@@H](CC(C)C)C(=O)[C@@]1(C)CO1)C(C)C` (some centres not stated), the results for the EC50 with HCT-116 and with NCI-H460 were 19 nM and 9 nM, respectively. The compound also gave an IC50 in [2] of 2.5 nM. `CCCCCCCCCC[C@H](O)C[C@H](O)[C@H](CC(C)C)[C@H](O)c1cc(O)cc(O)c1`: the MIC in the assay with Staphylococcus aureus [9] and with Staphylococcus aureus [10] was 8 µM (≈ 3.4 µg/mL) throughout. As for `CCC(=O)CCCCCCC[C@H](O)C[C@H](O)[C@H](CC(C)C)[C@H](O)c1cc(O)cc(O)c1`, the minimal inhibitory concentration (MIC) in the assay with Staphylococcus aureus [9] is 250 µM (≈ 110 µg/mL); in the assay on Staphylococcus aureus [10], greater than 500 µM. With `CCC(=O)[C@@H](C)C[C@@H](C)C[C@@H](C)CC[C@H](O)C[C@H](O)[C@H](CC(C)C)[C@H](O)c1cc(OC)cc(OC)c1`, the minimum inhibitory concentration (MIC) with Staphylococcus aureus [9] and in the assay on Staphylococcus aureus [10] was greater than 500 µM each time. Take `CC[C@H](O)C[C@H](O)[C@H](CC(C)C)[C@H](O)c1cc(O)cc(O)c1`: the MIC in the assay on Staphylococcus aureus [9] and in the assay on Staphylococcus aureus [10] was greater than 500 µM in each case. For `CC(C)C[C@H]([C@H](O)c1cc(O)cc(O)c1)[C@@H](O)C[C@@H](O)CC[C@H](C)C[C@H](C)C[C@H](C)CO`, the MIC with Staphylococcus aureus [9] and with Staphylococcus aureus [10] was 500 µM (≈ 227 µg/mL) throughout. Regarding `CCCC(=O)[C@@H](C)C[C@@H](C)C[C@@H](C)CC[C@H](O)C[C@H](O)[C@H](CC(C)C)[C@H](O)c1cc(O)cc(O)c1`, the MIC in the assay with Staphylococcus aureus [9] and in the assay on Staphylococcus aureus [10] was 63 µM (≈ 31.2 µg/mL) in each case. `C=C/C=C\[C@H](C)[C@H](OC(N)=O)[C@@H](C)[C@H](O)[C@@H](C)C/C(C)=C\[C@H](C)[C@@H](O)[C@@H](C)/C=C\[C@@H](O)C[C@@H]1OC(=O)[C@H](C)[C@@H](O)[C@H]1C` [DISERMOLIDE]: the IC50 in the assay on P388 [14] stood at 0.5 µg/mL (≈ 0.842 µM); with SK-OV-3, 6.1 nM; with A549 [1], 1.8 nM.

With `CC1=CC[C@H]2[C@](C)(CO)CCC[C@]2(C)[C@H]1C[C@@]12O[C@@H]1C(=O)C(CO)=C[C@H]2O` [EPOXYPHOLAMIN A], the concentration for half-maximal inhibition (IC50) with OVCAR-3 is 0.017 µg/mL (≈ 0.0452 µM); in [15] it was 0.017 µg/mL (≈ 0.0452 µM); in the assay with MAXF401 cell line, 0.01 µg/mL (≈ 0.0266 µM). In the assay on Candida albicans [16], `CC(=O)O[C@@H]1c2nc(cs2)C(=O)O[C@@H](CCCC(C)(Cl)Cl)[C@H](C)C(=O)O[C@@H](C(C)(C)O)c2nc(cs2)C(=O)OC1(C)C` [HECTOCHLORIN] yielded an IC50 of 20 nM.

For `CC(=O)O[C@H]1C(=O)[C@@]2(C)[C@H]([C@H](OC(=O)c3ccccc3)[C@]3(O)C[C@H](OC(=O)[C@H](O)[C@@H](NC(=O)c4ccccc4)c4ccccc4)C(C)=C1C3(C)C)[C@]1(OC(C)=O)CO[C@@H]1C[C@@H]2O` [PACLITAXEL], the half-inhibitory concentration (IC50) with SK-OV-3 came to 31.3 nM; in the assay on A549 [1], 3.8 nM.
